{
  "source": "patent US20070027130A1",
  "about": "“Tricyclic 6-alkylidene-penem beta-lactamase inhibitors and beta-lactam antibiotic combination: a broad spectrum antibiotic” (priority 2005, published 2007)",
  "assay_in_all_cases": "MIC microbroth dilution",
  "assay_type_in_all_cases": "cell-based",
  "key": {"[1]": {"test_system": "P. aeruginosa ATCC 27853 AmpC-inducable", "conditions": "Pseudomonas aeruginosa, ATCC27853, β-lactamase class C, MHBII, 35° C. 18 hr, read-out: Minimal Inhibitory Concentration", "procedure,_shortened": "(§1)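 Read-out is the MIC from microbroth dilution done according to NCCLS guidance. Medium was Mueller-Hinton II broth.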"}, "[2]": {"test_system": "K. pn GC 6655 (TEM-1 + ACT-1)", "conditions": "Klebsiella pneumoniae, β-lactamase class A, C, MHBII, 35° C. 18 hr, read-out: Minimal Inhibitory Concentration", "procedure,_shortened": "as §1"}, "[3]": {"test_system": "S. marcescens GC 1781 (Sme-1 + AmpC)", "conditions": "Serratia marcescens, β-lactamase class A (Cb'ase), C, MHBII, 35° C. 18 hr, read-out: Minimal Inhibitory Concentration", "procedure,_shortened": "as §1"}, "[4]": {"test_system": "E. coli GC 4971 OXA-1, TEM-1", "conditions": "Escherichia coli, β-lactamase class A, D, MHBII, 35° C. 18 hr, read-out: Minimal Inhibitory Concentration", "procedure,_shortened": "as §1"}, "E. coli GC 1807 OXA-7": {"test_system": "E. coli GC 1807 OXA-7", "conditions": "Escherichia coli, GC1807OXA7, β-lactamase class D, MHBII, 35° C. 18 hr, read-out: Minimal Inhibitory Concentration", "procedure,_shortened": "as §1"}, "[5]": {"test_system": "E. coli GAR 5929 TEM, OXA, Act-1 , CTX (By PCR only)", "conditions": "Escherichia coli, β-lactamase class A, C, D, MHBII, 35° C. 18 hr, read-out: Minimal Inhibitory Concentration", "procedure,_shortened": "as §1"}, "[6]": {"test_system": "K. pneumoniae GC 7645 TEM-30 TEM-1 KPC-2 SHV-12", "conditions": "Klebsiella pneumoniae, 18 h, read-out: Minimal Inhibitory Concentration", "procedure,_shortened": "as §1"}, "[7]": {"test_system": "P. aeruginosa PT 8411 PTZ-R*", "conditions": "Pseudomonas aeruginosa; P. aeruginosa PT 8411, piperacillin-tazobactam-resistant; MHBII, 35° C. 18 hr; read-out: Minimal Inhibitory Concentration", "procedure,_shortened": "as §1"}},
  "data": [
    {"compound": "CO/N=C(\\C(=O)N[C@@H]1C(=O)N2C(C(=O)[O-])=C(C[N+]3(C)CCCC3)CS[C@H]12)c1csc(N)n1", "note": "[Cefepime]", "values": [
      {"measurement": "MIC", "setting": "[1]", "result": 2, "unit": "mg/L"},
      {"measurement": "MIC", "setting": "[2]", "result": 1, "unit": "mg/L"},
      {"measurement": "MIC", "setting": "[3]", "result": 0.06, "unit": "mg/L"},
      {"measurement": "MIC", "setting": "[4]", "result": 2, "unit": "mg/L"},
      {"measurement": "MIC", "setting": "E. coli GC 1807 OXA-7", "result": 0.12, "unit": "mg/L"},
      {"measurement": "MIC", "setting": "[5]", "result": "> 16", "unit": "mg/L"},
      {"measurement": "MIC", "setting": "[6]", "result": "> 16", "unit": "mg/L"},
      {"measurement": "MIC", "setting": "[7]", "result": 16, "unit": "mg/L"}
    ]}
  ]
}
